Test results taken from US20160184274A1, “Methods for inhibiting mesenchymal phenotype after epithelial-to-mesenchymal transition” (Fibrostatin, S.L., priority 2014, published 2016).

Key:
4T1 cells = experiment: Cell death / caspase 3 activation in 4T1 cells; assay type: cell-based, Mouse; details: same T12 concentrations as for circulating 4T1 cells; FIG. 11D-E
Procedure: FIG. 11. T12 targets circulating 4T1 cancer cells. A, Balb/c female mice were inoculated with 4T1 mouse breast cancer cells at mammary fat pads. At day 20 after cell inoculation mice were subjected to PET analysis for metastases detection. White arrows denote metastatic foci at the spinal cord. B, Balb/c female from A were either left untreated (Control), or were treated with T12 in drinking water from day 20. At day 35 blood was seeded in the presence of 6-thioguanine and circulating 4T1 cells selected and further cultured. Shown are phase contrast images of the resulting cultures acquired with an inverted microscope. […] C, circulating 4T1 cells recovered as in B and 4T1 cells were cultured in standard 2D cultures and subjected to RNA extraction, and RNA samples were analyzed by RT-qPCR. Shown are the relative quantities (RQ) of the indicated mRNAs of circulating 4T1 cells using levels from 4T1 cells as reference. […] Dead cells in culture media were quantified by measuring cell size using an automated cell counter (Moxi Z, Orflo). […] E, circulating 4T1 cells recovered as in B or 4T1 cells were cultured in ultra-low binding plates and treated with the indicated concentrations of T12 for 9 days, cells were lysed and analyzed by Western blot using antibodies specific for activated caspase 3. The levels of GAPDH were determined for loading control purposes. […]

[1] = tested on: mesenchymal A549 spheroids; experiment: Spheroid viability / cell death by LDH activity in media; assay type: cell-based, Human; details: T12 10 μM for the last 2 days of 4-day EMT induction; FIG. 7B
Procedure: FIG. 7. T12 disrupts collagen IV network and reduces A549 mesenchymal spheroids viability. A549 spheroids were subjected to EMT induction with TGF-β and TNF-α during 4 days, and treated with T12 (10 μM) or maintained untreated (Cont) for the last 2 days. In A, spheroids were analyzed by immunofluorescence confocal microscopy with anti-α1α2 (IV) antibodies (COL4, white) and DAPI to visualize the cell nuclei (grey). In B, the culture media of the spheroids in A were used for assessing cell death by measuring LDH activity. […] Represented are Means (±SEM).
For some purposes, culture media were cleared by centrifugation (500×g, 10 min, room temperature) and LDH activity in supernatants determined with Lactate Dehydrogenase Activity Assay Kit (Sigma-Aldrich).
Three-dimensional spheroid cultures of A549 cells were obtained using a hanging droplet method (Kelm et al., 2003. Biotechnol. Bioeng. 83: 173-180.; Kumar et al., 2013. PLoS One. 8: e68597). Briefly, cells were grown to approximately 80% confluence on adherent tissue-culture flasks. Then cells were trypsinized, dispersed in DMEM/10% FBS, and counted using an automated cell counter (MOXI® Z, Orflo). The cell suspension was diluted to a 10^6 cells/mL-concentration, and 25 μl of the cell suspension were pipetted onto the underside of a sterile 10-cm tissue culture plate lid. Each lid was loaded with approximately 55 droplets. […]

SMILES: COc1ccc(-c2ccc(-c3cccc(C)c3)c(C)c2)c(CCC(=O)O)c1 [T12, 3-[4″-methoxy-3,2′-dimethyl-(1,1′;4′,1″)terphenyl-2″-yl] propionic acid]
- sensitivity to T12: dead cells and activated caspase 3 (4T1 cells): little effect on 4T1 cells
- cell viability (LDH activity in culture media) [1]: reduced cell viability
